Two molecules from article PMC9288506, “Compounds activating VCP D1 ATPase enhance both autophagic and proteasomal neurotoxic protein clearance” (Nature Communications, 2022) can be followed below.

This test concerns the target T1, VCP (p97, Valosin-containing protein) (Homo sapiens, UniProt P55072).
T1 construct: Full-length VCP (6xHis-tag)
The test can be described thus: SPR. It counts as binding.

T1 sequence (P55072 2-806): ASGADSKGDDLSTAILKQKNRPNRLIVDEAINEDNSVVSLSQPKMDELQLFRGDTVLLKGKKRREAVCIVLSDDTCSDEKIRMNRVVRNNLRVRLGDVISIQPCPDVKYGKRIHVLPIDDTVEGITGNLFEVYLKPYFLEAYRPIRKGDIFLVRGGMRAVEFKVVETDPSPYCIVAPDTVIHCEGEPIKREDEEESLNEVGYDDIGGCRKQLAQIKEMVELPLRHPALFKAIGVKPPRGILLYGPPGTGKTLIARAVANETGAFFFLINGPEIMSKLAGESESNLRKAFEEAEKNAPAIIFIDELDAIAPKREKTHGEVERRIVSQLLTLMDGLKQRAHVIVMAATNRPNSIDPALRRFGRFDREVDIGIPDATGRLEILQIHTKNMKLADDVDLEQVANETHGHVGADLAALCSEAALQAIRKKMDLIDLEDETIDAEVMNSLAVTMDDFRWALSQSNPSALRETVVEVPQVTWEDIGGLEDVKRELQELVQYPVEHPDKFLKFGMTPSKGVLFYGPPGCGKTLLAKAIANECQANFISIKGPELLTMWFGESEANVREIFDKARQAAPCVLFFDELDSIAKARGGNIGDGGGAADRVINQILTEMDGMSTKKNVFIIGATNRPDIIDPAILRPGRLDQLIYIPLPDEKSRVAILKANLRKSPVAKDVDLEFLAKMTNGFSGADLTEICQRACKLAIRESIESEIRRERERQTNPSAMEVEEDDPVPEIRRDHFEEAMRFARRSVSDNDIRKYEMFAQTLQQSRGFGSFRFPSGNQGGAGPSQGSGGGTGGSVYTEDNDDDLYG

As usually defined, the Kd is the equilibrium constant for the complex coming apart. A higher Kd goes with a looser complex. In turn, `Nc1ncnc2c1ncn2[C@@H]1O[C@H](COP(=O)(O)OP(=O)(O)O)[C@@H](O)[C@H]1O` [ADP] gave a Kd of approximately 800 nM.
To `COc1cccc2c(NCc3ccccc3)nc(-n3c(N)nc4ccccc43)nc12` [ML240] belongs 230 ± 30 nM.
